Laboratory results as given in patent publication US20100173917A1, “UREA DERIVATIVES AS ABL MODULATORS” (Ambit Biosciences Corporation, priority 2003, published 2010).

What was measured:
ABL1(DKIN) = molecular target: T1, ABL1(DKIN) (Homo sapiens, UniProt P00519); experiment: Phage-display competition binding assay (Kd), ABL1(DKIN)
T1 construct: ABL1(DKIN); fused on or other part: Fused to T7 bacteriophage particles (phage display)
From the text: (§1) The term “ND” represents non-determined values.

ABL1(E255K) = molecular target: T2, ABL1(E255K) (Homo sapiens, UniProt P00519, E255K); experiment: Phage-display competition binding assay (Kd), ABL1(E255K)
T2 construct: made in house; host or cells: T7 bacteriophage display
From the text: as §1

ABL1(T3151) = molecular target: T3, ABL1(T3151) (Homo sapiens, UniProt P00519, T315I); experiment: Phage-display competition binding assay (Kd), ABL1(T3151)
T3 construct: made in house; host or cells: T7 bacteriophage display
From the text: as §1

ABL1(E274K) = molecular target: T4, ABL1(E274K) (Homo sapiens, UniProt P00519, E255K); experiment: Phage-display competition binding assay (Kd), ABL1(E274K)
T4 construct: made in house; host or cells: T7 bacteriophage display
From the text: as §1

ABL1(Y253F) = molecular target: T5, ABL1(Y253F) (Homo sapiens, UniProt P00519, Y253F); experiment: Phage-display competition binding assay (Kd), ABL1(Y253F)
T5 construct: made in house; host or cells: T7 bacteriophage display
From the text: as §1

ABL1(H396P) = molecular target: T6, ABL1(H396P) (Homo sapiens, UniProt P00519, H396P); experiment: Phage-display competition binding assay (Kd), ABL1(H396P)
T6 construct: made in house; host or cells: T7 bacteriophage display
From the text: as §1

ABL1(Q252H) = molecular target: T7, ABL1(Q252H) (Homo sapiens, UniProt P00519, Q252H); experiment: Phage-display competition binding assay (Kd), ABL1(Q252H)
T7 construct: made in house; host or cells: T7 bacteriophage display
From the text: as §1

Kd (ABL1(DKIN)) [µM] | Kd (ABL1(E255K)) [µM] | Structure (SMILES) | other results
 | > 10 | Cc1[nH]c(C(=O)Nc2ccc(NC(=O)Nc3cc(C(C)(C)C)on3)cc2)c(C)c1CCC(=O)O [Compound N39] | 
0.1 to 1 |  | CC(C)(C)c1cc(NC(=O)Nc2ccc(NC(=O)Cc3sc(-c4ccc(Cl)cc4)nc3-c3ccccc3)cc2)no1 [Compound N66] | 
 | > 10 | Cc1ccc(C(=O)Nc2ccc(NC(=O)Nc3nc(C(C)(C)C)cs3)cc2)cc1 [Compound N135] | Kd (ABL1(T3151)): > 10 µM
 | > 10 | CC(C)(C)c1cc(NC(=O)Nc2ccc(NC(=O)c3ccnc4ccccc34)cc2)no1 [Compound N141] | 
 | > 10 | Cc1ccc(C(=O)Nc2ccc(NC(=O)Nc3cc(C(C)(C)C)on3)cc2)cn1 [Compound N142] | 
 | > 10 | CC(C)(C)c1cc(NC(=O)Nc2ccc(NC(=O)c3ccc4ccccc4n3)cc2)no1 [Compound N143] | 
 | > 10 | CC(C)(C)c1cc(NC(=O)Nc2ccc(NC(=O)c3ccc4cccnc4n3)cc2)no1 [Compound N144] | 
 | > 10 | Cc1ncccc1C(=O)Nc1ccc(NC(=O)Nc2cc(C(C)(C)C)on2)cc1 [Compound N145] | 
 | > 10 | COc1cc2nc(Cl)nc(Nc3ccc(NC(=O)Nc4cc(C(C)(C)C)on4)cc3)c2cc1OC [Compound O1, 1-(4-(2-chloro-6,7-dimethoxyquinazolin-4-ylamino)phenyl)-3-(5-tert-butylisoxazol-3-yl)urea] | Kd (ABL1(Y253F)): > 10 µM; Kd (ABL1(H396P)): > 10 µM; Kd (ABL1(T3151)): 1 to 10 µM; Kd (ABL1(Q252H)): 1 to 10 µM
< 0.1 | 0.1 to 1 | COc1cc2ncnc(Nc3ccc(NC(=O)Nc4cc(C(C)(C)C)on4)cc3)c2cc1OC [Compound O5] | Kd (ABL1(Y253F)): 0.1 to 1 µM; Kd (ABL1(H396P)): 0.1 to 1 µM; Kd (ABL1(T3151)): < 0.1 µM; Kd (ABL1(Q252H)): 0.1 to 1 µM

The remaining lines, values behind:

Structure (SMILES) | Kd (ABL1(DKIN)) [µM] | Kd (ABL1(E255K)) [µM] | other results
CC(C)(C)c1cc(NC(=O)Nc2ccc(Cl)c(C(F)(F)F)c2)no1 [Compound A1, 1-(5-tent-butylisoxazol-3-yl)-3-(4-chloro-3-(trifluoromethyl)phenyl)urea] | > 10 |  | 
CC(C)(C)c1cc(NC(=O)Nc2ccc(Br)cc2C(F)(F)F)on1 [Compound A26] | > 10 |  | 
COc1ccc(NC(=O)Nc2cc(C(C)(C)C)no2)cc1 [Compound A30] | > 10 |  | 
CC(C)(C)c1cc(NC(=O)Nc2ccc(Cl)cc2)on1 [Compound A32] | > 10 |  | 
CSc1ccc(NC(=O)Nc2cc(C(C)(C)C)no2)cc1 [Compound A39] | > 10 |  | 
CC(C)(C)c1cc(NC(=O)Nc2ccc(Br)cc2C(F)(F)F)no1 [Compound A41] | > 10 |  | 
CC(C)(C)c1cc(NC(=O)Nc2ccc(OCCCc3ccncc3)cc2)no1 [Compound G1, 1-(4-(3-(pyridin-4-yl)propoxy)phenyl)-3-(5-tert-butylisoxazol-3-yl)urea] |  | > 10 | 
CC(C)(C)c1cc(NC(=O)Nc2ccc(OCCc3ccncc3)cc2)no1 [Compound G22] |  | > 10 | 
CC(C)(C)c1cc(NC(=O)Nc2ccc(OCCc3ccccn3)cc2)no1 [Compound G27] |  | > 10 | Kd (ABL1(T3151)): 1 to 10 µM
CC(C)(C)c1csc(NC(=O)Nc2ccc(OCc3ccccc3)cc2)n1 [Compound G49] |  | > 10 | 
Cc1ccc(-n2nc(C(C)(C)C)cc2NC(=O)Nc2ccc(Br)cc2C(F)(F)F)cc1 [Compound H13] | > 10 |  | 
CC(C)(C)c1cc(NC(=O)Nc2ccc(NC(=O)c3cccc4nc5cc(O)cc(O)c5cc34)cc2)no1 [Compound N139] |  |  | Kd (ABL1(T3151)): > 10 µM
CC(C)(C)c1cc(NC(=O)Nc2ccc(NC(=O)c3c4c(nc5ccccc35)CCCC4)cc2)no1 [Compound N140] |  |  | Kd (ABL1(T3151)): > 10 µM
CC(C)(C)c1cc(NC(=O)Nc2ccc(C(=O)Nc3nccnc3N)cc2)no1 [Compound N157] |  |  | Kd (ABL1(E274K)): > 10 µM
COC(=O)c1cccc(Sc2ncc(NC(=O)Nc3cc(C(C)(C)C)on3)s2)c1 [Compound O8] |  |  | Kd (ABL1(T3151)): 0.1 to 1 µM
